According to patent publication US20190231705A1, “HIGH DRUG LOAD POLYMERIC NANOPARTICLE FORMULATIONS AND METHODS OF MAKING AND USING SAME” (Merck Sharp & Dohme Corp., priority 2018, published 2019):

Assay: Solution content after 80K centrifugation
Type: physicochemical
Conditions: grazoprevir/HPMCAS-L nanoparticle suspension after 80k centrifugation

Question: Which “% Grazoprevir in solution” value does the source give for `C=C[C@@H]1C[C@]1(NC(=O)[C@@H]1C[C@@H]2CN1C(=O)[C@H](C(C)(C)C)NC(=O)O[C@@H]1C[C@H]1CCCCCc1nc3ccc(OC)cc3nc1O2)C(=O)NS(=O)(=O)C1CC1` [grazoprevir, (1aR,5S,8S, 10R,22aR)-N-[(1R,2S)-1-[(cyclopropylsulfonamido)-carbonyl]-2-ethenylcyclopropyl]-14-methoxy-5-(2-methylpropan-2-yl)-3,6-dioxo-1,1a,3,4,5,6,9,10,18,-19,20,21,22,22a-tetradecahydro-8H-7,10-methanocyclopropa[18,19][1,10,3,6]dioxadiaza-cyclononadecino[11,12-b]quinoxaline-8-carboxamide] here?
Answer: Its value is 4.2%.
